Source: PubChem BioAssay (NCI)
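Grown in 96-well plates, cells were treated for 48 hours with each compound at five concentrations. Insufficient inhibition: endpoint recorded as highest concentration tested. GI50 is the concentration that inhibits growth by half. TGI: concentration producing complete growth inhibition.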

What was measured:
Test in all cases: DTP human tumour cell line panel, 48 h; in the data active = GI50 below about 0.43 µM; inactive = the rest
HT29 colon = tested on: HT29 colon
M14 melanoma = tested on: M14 melanoma
SNB-19 CNS = tested on: SNB-19 CNS
K-562 leukemia = tested on: K-562 leukemia
MALME-3M melanoma = tested on: MALME-3M melanoma
BT-549 breast = tested on: BT-549 breast
SF-539 CNS = tested on: SF-539 CNS
HOP-92 NSCLC = tested on: HOP-92 NSCLC
CCRF-CEM leukemia = tested on: CCRF-CEM leukemia
MDA-MB-435 = tested on: MDA-MB-435

CCOC(=O)C1=C(C)NC(=O)NC1c1coc2cc(C)cc(C)c2c1=O (stereo not given)
> 100 µM: TGI (HT29 colon) | TGI (M14 melanoma) | TGI (SNB-19 CNS) | TGI (K-562 leukemia) | TGI (MALME-3M melanoma) | TGI (BT-549 breast) | TGI (SF-539 CNS) | TGI (HOP-92 NSCLC) | TGI (CCRF-CEM leukemia)
45.4 µM: TGI (MDA-MB-435)

CC(=O)OC1CCC2(C)C(=CCC3C2CCC2(C)C(C(C)C(=O)O)CCC32)C1 (stereo not given)
> 100 µM: TGI (HT29 colon) | TGI (M14 melanoma) | TGI (SNB-19 CNS) | TGI (K-562 leukemia) | TGI (MALME-3M melanoma) | TGI (BT-549 breast) | TGI (SF-539 CNS) | TGI (HOP-92 NSCLC) | TGI (CCRF-CEM leukemia) | TGI (MDA-MB-435)

COc1cc([C@@H]2c3cc4c(cc3[C@@H](O[C@@H]3O[C@@H]5CO[C@@H](c6cccs6)O[C@H]5[C@H](O)[C@H]3O)[C@H]3COC(=O)[C@H]23)OCO4)cc(OC)c1O
4.37 µM: TGI (BT-549 breast)
0.432 µM: TGI (SF-539 CNS)
1.99 µM: TGI (HOP-92 NSCLC)
> 39.2 µM: TGI (MDA-MB-435)
2.95 µM: TGI (M14 melanoma)
inactive: GI50 (HT29 colon) 0.614 µM | GI50 (MALME-3M melanoma) 0.435 µM | GI50 (MDA-MB-435) 1.15 µM
active: GI50 (M14 melanoma) 0.267 µM | GI50 (SNB-19 CNS) 0.167 µM | GI50 (K-562 leukemia) 0.411 µM | GI50 (BT-549 breast) 0.344 µM | GI50 (SF-539 CNS) 0.0972 µM | GI50 (CCRF-CEM leukemia) 0.0704 µM
3.66 µM: TGI (HT29 colon)
> 100 µM: TGI (SNB-19 CNS) | TGI (K-562 leukemia) | TGI (CCRF-CEM leukemia)
5.02 µM: TGI (MALME-3M melanoma)

COC(=O)c1ccc([N+](=O)[O-])c(O)c1
> 100 µM: TGI (HT29 colon) | TGI (M14 melanoma) | TGI (SNB-19 CNS) | TGI (K-562 leukemia) | TGI (MALME-3M melanoma) | TGI (BT-549 breast) | TGI (SF-539 CNS) | TGI (HOP-92 NSCLC) | TGI (CCRF-CEM leukemia) | TGI (MDA-MB-435)

COc1ccc(C2=C(c3cc(OC)c(OC)c(OC)c3)C(=O)CC2)cc1
active: GI50 (HT29 colon) 0.0845 µM | GI50 (M14 melanoma) 0.107 µM | GI50 (SNB-19 CNS) 0.41 µM | GI50 (K-562 leukemia) 0.0449 µM | GI50 (SF-539 CNS) 0.189 µM | GI50 (CCRF-CEM leukemia) 0.21 µM | GI50 (MDA-MB-435) 0.0291 µM
15.3 µM: TGI (HT29 colon)
54.1 µM: TGI (HOP-92 NSCLC)
4.01 µM: TGI (M14 melanoma)
> 100 µM: TGI (SNB-19 CNS) | TGI (K-562 leukemia) | TGI (MALME-3M melanoma)
0.12 µM: TGI (MDA-MB-435)
> 48.3 µM: TGI (SF-539 CNS)
inactive: GI50 (MALME-3M melanoma) > 100 µM | GI50 (BT-549 breast) 0.919 µM | GI50 (HOP-92 NSCLC) 1.68 µM
> 22.7 µM: TGI (BT-549 breast)

N#Cc1cccc(NC(=O)c2oc3ccccc3c2-c2cnn(-c3ccccc3)c2)c1
> 500 µM: TGI (HT29 colon) | TGI (M14 melanoma) | TGI (SNB-19 CNS) | TGI (K-562 leukemia) | TGI (MALME-3M melanoma) | TGI (BT-549 breast) | TGI (SF-539 CNS) | TGI (HOP-92 NSCLC) | TGI (CCRF-CEM leukemia) | TGI (MDA-MB-435)
inactive: GI50 (HT29 colon) > 500 µM | GI50 (M14 melanoma) > 500 µM | GI50 (SNB-19 CNS) 192 µM | GI50 (K-562 leukemia) > 500 µM | GI50 (MALME-3M melanoma) 278 µM | GI50 (BT-549 breast) 167 µM | GI50 (SF-539 CNS) 137 µM | GI50 (HOP-92 NSCLC) 121 µM | GI50 (CCRF-CEM leukemia) > 500 µM | GI50 (MDA-MB-435) > 500 µM

C/C(=C\CCc1ccoc1)CC/C=C(\C)CCCN1CCC(CO)CC1
3.92 µM: TGI (M14 melanoma)
6.9 µM: TGI (SF-539 CNS)
6.47 µM: TGI (CCRF-CEM leukemia)
3.86 µM: TGI (K-562 leukemia)
3.52 µM: TGI (MALME-3M melanoma)
7.48 µM: TGI (HT29 colon)
19.4 µM: TGI (SNB-19 CNS)
6.16 µM: TGI (HOP-92 NSCLC)
12.1 µM: TGI (BT-549 breast)
inactive: GI50 (HT29 colon) 2.26 µM | GI50 (M14 melanoma) 1.94 µM | GI50 (SNB-19 CNS) 4.61 µM | GI50 (K-562 leukemia) 1.52 µM | GI50 (MALME-3M melanoma) 1.79 µM | GI50 (BT-549 breast) 2.77 µM | GI50 (SF-539 CNS) 2.39 µM | GI50 (HOP-92 NSCLC) 1.44 µM | GI50 (CCRF-CEM leukemia) 2.42 µM | GI50 (MDA-MB-435) 3.07 µM
10.8 µM: TGI (MDA-MB-435)

N#CN1CCC[C@H]1C(=O)N1CCc2c(-c3[nH]nc4ncccc34)cccc21
0.0129 µM: TGI (HT29 colon)
28.4 µM: TGI (CCRF-CEM leukemia)
0.0993 µM: TGI (BT-549 breast)
0.354 µM: TGI (M14 melanoma)
active: GI50 (HT29 colon) < 0.01 µM | GI50 (M14 melanoma) < 0.01 µM | GI50 (SNB-19 CNS) 0.157 µM | GI50 (K-562 leukemia) < 0.01 µM | GI50 (MALME-3M melanoma) 0.0279 µM | GI50 (BT-549 breast) < 0.01 µM | GI50 (SF-539 CNS) < 0.01 µM | GI50 (HOP-92 NSCLC) < 0.01 µM | GI50 (CCRF-CEM leukemia) < 0.01 µM | GI50 (MDA-MB-435) < 0.01 µM
21.5 µM: TGI (SNB-19 CNS)
< 0.01 µM: TGI (SF-539 CNS) | TGI (MDA-MB-435)
0.0809 µM: TGI (HOP-92 NSCLC)
16.7 µM: TGI (MALME-3M melanoma)
> 37.8 µM: TGI (K-562 leukemia)

C#COc1cccc(Nc2ncnc3ncc(NC(=O)CCl)cc23)c1
> 38 µM: TGI (MALME-3M melanoma)
> 62.5 µM: TGI (HT29 colon) | TGI (M14 melanoma) | TGI (SNB-19 CNS) | TGI (K-562 leukemia) | TGI (BT-549 breast) | TGI (HOP-92 NSCLC) | TGI (CCRF-CEM leukemia) | TGI (MDA-MB-435)
inactive: GI50 (M14 melanoma) 50.5 µM | GI50 (SNB-19 CNS) > 43.3 µM | GI50 (MALME-3M melanoma) > 23.7 µM | GI50 (BT-549 breast) > 62.5 µM | GI50 (SF-539 CNS) > 21.8 µM | GI50 (HOP-92 NSCLC) > 62.5 µM | GI50 (MDA-MB-435) > 49.8 µM
> 53.2 µM: TGI (SF-539 CNS)

N#Cc1c(NC(=O)CN2CCOCC2)sc2c1CCCC2
> 25 µM: TGI (HT29 colon) | TGI (M14 melanoma) | TGI (SNB-19 CNS) | TGI (K-562 leukemia) | TGI (MALME-3M melanoma) | TGI (BT-549 breast) | TGI (SF-539 CNS) | TGI (HOP-92 NSCLC) | TGI (CCRF-CEM leukemia) | TGI (MDA-MB-435)
inactive: GI50 (HT29 colon) > 25 µM | GI50 (M14 melanoma) > 25 µM | GI50 (SNB-19 CNS) > 25 µM | GI50 (K-562 leukemia) > 25 µM | GI50 (MALME-3M melanoma) > 25 µM | GI50 (BT-549 breast) > 25 µM | GI50 (SF-539 CNS) > 25 µM | GI50 (HOP-92 NSCLC) > 25 µM | GI50 (CCRF-CEM leukemia) > 25 µM | GI50 (MDA-MB-435) > 25 µM
